Test results: the supplement of paper PMC6045584
± gives the standard deviation of the averaged measurements.

Columns and labels:
[1] = compound: COc1ccc(-c2cc3c(C)nc(N)nc3n([C@H]3CC[C@H](OCCO)CC3)c2=O)cn1; experiment: surviving fraction relative to DMSO-only wells; higher = less growth inhibition; conditions: exposure time: 5 days
Method in brief: (§1)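 Tumour cell lines were seeded in log phase at 250–500 cells per well into 384-well plates. Starting 24 hours later, inhibitors were present continuously for five days at 0.5, 1, 5, 10, 50, 100, 500 and 1000 nM. Surviving fraction, from CellTiter-Glo luminescence, is normalised to the median of DMSO-only wells. Three screens per line were required, with replicate Pearson r >0.7 and median Z' >0.3 for a line to be kept.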

[2] = compound: C[C@H](CN(C)C)Oc1nc(Nc2cc3cccc(Cl)c3cn2)cnc1C#N; experiment: as above; conditions: exposure time: 5 days
Method in brief: as §1

OS25HAL BONE
surviving fraction ([1]; 0.5 nM): 0.95 ± 0.012 | surviving fraction ([1]; 1 nM): 0.9753 ± 0.0029 | surviving fraction ([1]; 5 nM): 0.9657 ± 0.0091 | surviving fraction ([1]; 10 nM): 0.86 ± 0.041 | surviving fraction ([1]; 50 nM): 0.603 ± 0.042 | surviving fraction ([1]; 100 nM): 0.35 ± 0.066 | surviving fraction ([1]; 500 nM): 0.13 ± 0.0092 | surviving fraction ([1]; 1000 nM): 0.0623 ± 0.0049 | surviving fraction ([2]; 0.5 nM): 0.972 ± 0.013 | surviving fraction ([2]; 1 nM): 0.965 ± 0.034 | surviving fraction ([2]; 5 nM): 1.049 ± 0.0085 | surviving fraction ([2]; 10 nM): 0.979 ± 0.024 | surviving fraction ([2]; 50 nM): 1.07 ± 0.057 | surviving fraction ([2]; 100 nM): 1.09 ± 0.014 | surviving fraction ([2]; 500 nM): 0.615 ± 0.082 | surviving fraction ([2]; 1000 nM): 0.217 ± 0.023

OSHN BONE
surviving fraction ([1]; 0.5 nM): 1.03 ± 0.024 | surviving fraction ([1]; 1 nM): 1.03 ± 0.035 | surviving fraction ([1]; 5 nM): 1.02 ± 0.029 | surviving fraction ([1]; 10 nM): 1.01 ± 0.03 | surviving fraction ([1]; 50 nM): 1.1 ± 0.0058 | surviving fraction ([1]; 100 nM): 1.03 ± 0.034 | surviving fraction ([1]; 500 nM): 0.447 ± 0.016 | surviving fraction ([1]; 1000 nM): 0.267 ± 0.0045 | surviving fraction ([2]; 0.5 nM): 1.06 ± 0.015 | surviving fraction ([2]; 1 nM): 1.08 ± 0.025 | surviving fraction ([2]; 5 nM): 1.07 ± 0.015 | surviving fraction ([2]; 10 nM): 1.068 ± 0.0038 | surviving fraction ([2]; 50 nM): 1.13 ± 0.029 | surviving fraction ([2]; 100 nM): 1.1 ± 0.019 | surviving fraction ([2]; 500 nM): 0.709 ± 0.1 | surviving fraction ([2]; 1000 nM): 0.11 ± 0.019

PCI30 HEADNECK
surviving fraction ([1]; 0.5 nM): 0.935 ± 0.034 | surviving fraction ([1]; 1 nM): 0.947 ± 0.079 | surviving fraction ([1]; 5 nM): 0.902 ± 0.023 | surviving fraction ([1]; 10 nM): 0.963 ± 0.1 | surviving fraction ([1]; 50 nM): 0.716 ± 0.028 | surviving fraction ([1]; 100 nM): 0.495 ± 0.033 | surviving fraction ([1]; 500 nM): 0.181 ± 0.004 | surviving fraction ([1]; 1000 nM): 0.151 ± 0.0076 | surviving fraction ([2]; 0.5 nM): 0.99 ± 0.044 | surviving fraction ([2]; 1 nM): 0.999 ± 0.019 | surviving fraction ([2]; 5 nM): 1.06 ± 0.059 | surviving fraction ([2]; 10 nM): 1.06 ± 0.11 | surviving fraction ([2]; 50 nM): 0.9137 ± 0.0042 | surviving fraction ([2]; 100 nM): 0.827 ± 0.079 | surviving fraction ([2]; 500 nM): 0.337 ± 0.021 | surviving fraction ([2]; 1000 nM): 0.322 ± 0.017

RDES SOFT TISSUE
surviving fraction ([1]; 0.5 nM): 1.23 ± 0.074 | surviving fraction ([1]; 1 nM): 1.24 ± 0.12 | surviving fraction ([1]; 5 nM): 1.13 ± 0.1 | surviving fraction ([1]; 10 nM): 1.22 ± 0.097 | surviving fraction ([1]; 50 nM): 1.34 ± 0.055 | surviving fraction ([1]; 100 nM): 1.03 ± 0.038 | surviving fraction ([1]; 500 nM): 0.301 ± 0.015 | surviving fraction ([1]; 1000 nM): 0.166 ± 0.021 | surviving fraction ([2]; 0.5 nM): 1.28 ± 0.031 | surviving fraction ([2]; 1 nM): 1.37 ± 0.031 | surviving fraction ([2]; 5 nM): 1.3 ± 0.14 | surviving fraction ([2]; 10 nM): 1.2 ± 0.12 | surviving fraction ([2]; 50 nM): 1.17 ± 0.086 | surviving fraction ([2]; 100 nM): 1.32 ± 0.041 | surviving fraction ([2]; 500 nM): 1.33 ± 0.1 | surviving fraction ([2]; 1000 nM): 1.38 ± 0.13

S68 BREAST
surviving fraction ([1]; 0.5 nM): 0.953 ± 0.24 | surviving fraction ([1]; 1 nM): 0.88 ± 0.11 | surviving fraction ([1]; 5 nM): 0.993 ± 0.2 | surviving fraction ([1]; 10 nM): 0.845 ± 0.18 | surviving fraction ([1]; 50 nM): 0.334 ± 0.082 | surviving fraction ([1]; 100 nM): 0.16 ± 0.02 | surviving fraction ([1]; 500 nM): 0.0503 ± 0.0051 | surviving fraction ([1]; 1000 nM): 0.034 ± 0.001 | surviving fraction ([2]; 0.5 nM): 0.922 ± 0.12 | surviving fraction ([2]; 1 nM): 1.07 ± 0.076 | surviving fraction ([2]; 5 nM): 1.15 ± 0.062 | surviving fraction ([2]; 10 nM): 0.966 ± 0.065 | surviving fraction ([2]; 50 nM): 0.874 ± 0.14 | surviving fraction ([2]; 100 nM): 0.652 ± 0.052 | surviving fraction ([2]; 500 nM): 0.153 ± 0.0038 | surviving fraction ([2]; 1000 nM): 0.114 ± 0.0055

SAOS2 BONE
surviving fraction ([1]; 0.5 nM): 1.11 ± 0.018 | surviving fraction ([1]; 1 nM): 1.07 ± 0.016 | surviving fraction ([1]; 5 nM): 0.98 ± 0.083 | surviving fraction ([1]; 10 nM): 0.931 ± 0.04 | surviving fraction ([1]; 50 nM): 0.636 ± 0.018 | surviving fraction ([1]; 100 nM): 0.52 ± 0.014 | surviving fraction ([1]; 500 nM): 0.174 ± 0.0087 | surviving fraction ([1]; 1000 nM): 0.0977 ± 0.0011 | surviving fraction ([2]; 0.5 nM): 1.18 ± 0.055 | surviving fraction ([2]; 1 nM): 1.19 ± 0.047 | surviving fraction ([2]; 5 nM): 1.17 ± 0.058 | surviving fraction ([2]; 10 nM): 1.137 ± 0.01 | surviving fraction ([2]; 50 nM): 1.39 ± 0.1 | surviving fraction ([2]; 100 nM): 1.32 ± 0.068 | surviving fraction ([2]; 500 nM): 1.08 ± 0.12 | surviving fraction ([2]; 1000 nM): 0.944 ± 0.042

SCC003 HEADNECK
surviving fraction ([1]; 0.5 nM): 1.03 ± 0.13 | surviving fraction ([1]; 1 nM): 1.04 ± 0.057 | surviving fraction ([1]; 5 nM): 1.02 ± 0.18 | surviving fraction ([1]; 10 nM): 1.02 ± 0.036 | surviving fraction ([1]; 50 nM): 0.879 ± 0.098 | surviving fraction ([1]; 100 nM): 0.878 ± 0.13 | surviving fraction ([1]; 500 nM): 0.23 ± 0.034 | surviving fraction ([1]; 1000 nM): 0.206 ± 0.049 | surviving fraction ([2]; 0.5 nM): 1.04 ± 0.09 | surviving fraction ([2]; 1 nM): 1.06 ± 0.022 | surviving fraction ([2]; 5 nM): 1.06 ± 0.055 | surviving fraction ([2]; 10 nM): 1.05 ± 0.054 | surviving fraction ([2]; 50 nM): 1.05 ± 0.079 | surviving fraction ([2]; 100 nM): 1.1 ± 0.018 | surviving fraction ([2]; 500 nM): 0.848 ± 0.011 | surviving fraction ([2]; 1000 nM): 0.97 ± 0.12

SCC36 HEADNECK
surviving fraction ([1]; 0.5 nM): 1.11 ± 0.012 | surviving fraction ([1]; 1 nM): 0.988 ± 0.031 | surviving fraction ([1]; 5 nM): 0.914 ± 0.016 | surviving fraction ([1]; 10 nM): 1.11 ± 0.056 | surviving fraction ([1]; 50 nM): 0.807 ± 0.017 | surviving fraction ([1]; 100 nM): 0.84 ± 0.086 | surviving fraction ([1]; 500 nM): 0.167 ± 0.024 | surviving fraction ([1]; 1000 nM): 0.143 ± 0.024 | surviving fraction ([2]; 0.5 nM): 1.05 ± 0.03 | surviving fraction ([2]; 1 nM): 1.07 ± 0.038 | surviving fraction ([2]; 5 nM): 0.991 ± 0.065 | surviving fraction ([2]; 10 nM): 1.15 ± 0.055 | surviving fraction ([2]; 50 nM): 1.07 ± 0.041 | surviving fraction ([2]; 100 nM): 1.13 ± 0.042 | surviving fraction ([2]; 500 nM): 0.427 ± 0.053 | surviving fraction ([2]; 1000 nM): 0.313 ± 0.017

SCC47 HEADNECK
surviving fraction ([1]; 0.5 nM): 0.983 ± 0.021 | surviving fraction ([1]; 1 nM): 0.992 ± 0.084 | surviving fraction ([1]; 5 nM): 0.992 ± 0.027 | surviving fraction ([1]; 10 nM): 1.01 ± 0.015 | surviving fraction ([1]; 50 nM): 0.903 ± 0.032 | surviving fraction ([1]; 100 nM): 0.886 ± 0.019 | surviving fraction ([1]; 500 nM): 0.371 ± 0.013 | surviving fraction ([1]; 1000 nM): 0.225 ± 0.0095 | surviving fraction ([2]; 0.5 nM): 1.06 ± 0.052 | surviving fraction ([2]; 1 nM): 1.06 ± 0.091 | surviving fraction ([2]; 5 nM): 1.06 ± 0.065 | surviving fraction ([2]; 10 nM): 1.11 ± 0.054 | surviving fraction ([2]; 50 nM): 1.14 ± 0.059 | surviving fraction ([2]; 100 nM): 1.12 ± 0.1 | surviving fraction ([2]; 500 nM): 0.671 ± 0.049 | surviving fraction ([2]; 1000 nM): 0.925 ± 0.0085

SCC90 HEADNECK
surviving fraction ([1]; 0.5 nM): 0.913 ± 0.076 | surviving fraction ([1]; 1 nM): 0.916 ± 0.037 | surviving fraction ([1]; 5 nM): 0.892 ± 0.034 | surviving fraction ([1]; 10 nM): 0.904 ± 0.15 | surviving fraction ([1]; 50 nM): 0.674 ± 0.074 | surviving fraction ([1]; 100 nM): 0.555 ± 0.077 | surviving fraction ([1]; 500 nM): 0.194 ± 0.025 | surviving fraction ([1]; 1000 nM): 0.222 ± 0.054 | surviving fraction ([2]; 0.5 nM): 1.05 ± 0.08 | surviving fraction ([2]; 1 nM): 1.02 ± 0.082 | surviving fraction ([2]; 5 nM): 1.02 ± 0.09 | surviving fraction ([2]; 10 nM): 0.936 ± 0.1 | surviving fraction ([2]; 50 nM): 0.991 ± 0.038 | surviving fraction ([2]; 100 nM): 0.911 ± 0.034 | surviving fraction ([2]; 500 nM): 0.189 ± 0.03 | surviving fraction ([2]; 1000 nM): 0.215 ± 0.021
